From patent US20250129101A1, “Compound, Pharmaceutical Composition Comprising the Same and Method for Treating Cancer Using the Same” (NATIONAL TSING HUA UNIVERSITY, priority 2023, published 2025)

Legend:
KIF2C = target: T1, KIF2C (Homo sapiens, UniProt Q99661); test: In vitro validation: KIF2C kinesin activity, malachite green-based phosphate colorimetric assay; assay type: biochemical; conditions: concentration that inhibits 50% of KIF2C activity
T1 construct: KIF2C (216-598 a.a.); 6xHis (C); made in house; host or cells: E. coli BL21 (DE3), pET-28a
Experimental: (§1) The in vitro validation was performed by measuring KIF2C kinesin activity using malachite green-based phosphate colorimetric assay (BioVision). […] The microtubules from porcine brain tubulin (Cytoskeleton) or purified from HEK293 cells in Free-style medium (293Fs) were dissolved in the BRB80 buffer (80 mM PIPES pH 6.8, 1 mM EGTA, 1 mM MgCl2, 1 mM GTP, 1 mM DTT, and 10% DMSO) at 37° C. for 2 hr. Phosphates released from kinesin-mediated ATP hydrolysis was measured by adding 30 μL of the phosphate colorimetric reagent (BioVision), incubated for 10 min, and then measured with absorbance at 650 nm. […] The cell validation was performed by measuring cytotoxicity in MDA-MB-231 cells. The cells were cultured in a 96-well plate at a confluence of 2000 cells/well with indicates compounds for specific days. When the time was up, the culture medium in the plate was aspirated and replaced with a prepared CellTiter-Glo reagent (Promega)/DMEM mixture (1:1 mix of CellTiter-Glo reagent and serum-supplemented DMEM). After incubation for 10 min, the luminescence was measured with an ELISA plate reader to determine the cell viability.
In vitro kinesin activity was measured using malachite green-based phosphate colorimetric assay (BioVision). […] The microtubules from porcine brain tubulin (Cytoskeleton) or purified from HEK293 cells in Free-style medium (293Fs) were dissolved in the BRB80 buffer (80 mM PIPES pH 6.8, 1 mM EGTA, 1 mM MgCl2, 1 mM GTP, 1 mM DTT, and 10% DMSO) at 37° C. for 2 hr. Phosphates released from kinesin-mediated ATP hydrolysis was measured by adding 30 μL of the phosphate colorimetric reagent (BioVision), incubated for 10 min, and then measured with absorbance at 650 nm.
Constructs of sN+M regions of KIF2C (216-598 a.a.), KIF2A (181-562 a.a.) and KIF2B (171-553 a.a.) with C-terminal 6×His tag were subcloned into pET-28a vector and expressed in BL21 (DE3) E. coli cells (Novartis) cultured in Luria-Bertani medium supplemented with 50 ug/mL kanamycin at 37° C. After induction with 0.8 mM IPTG for 18 hr at 20° C., the cells were pelleted by centrifugation at 6000 rpm for 30 min at 10° C. The collected pellets were resuspended in 30 mL of buffer A (20 mM Tris-HCl pH 7.5, 500 mM NaCl, 10 mM imidazole, 1% CHAPS, and 1 mM PMSF) and next subjected to a high-pressure homogenizer (EmulsiFlex-C3) for cell lysis. After removing the cell debris by centrifugation at 13000 rpm for 30 min at 10° C., the recombinant Kinesin-13 in the supernatant was purified using nickel affinity chromatography. Firstly, the supernatant was applied to the Ni-NTA column (GE Healthcare) pre-equilibrated with buffer A. Secondly, the column was washed with 10× column volumes of buffer A to remove the unwanted proteins. The washed column was then eluted with 10× column volumes of buffer containing increasing concentrations of imidazole (40, 100, 300, 1000 mM), and the majority of the recombinant Kinesin-13 protein was eventually obtained in a fraction of 300 mM imidazole. The fractions containing the recombinant Kinesin-13 were subsequently concentrated in the buffer B (20 mM Tris-HCl pH 7.5, 10 mM imidazole, 50 mM NaCl, 2 mM DTT) using an Amicon® Ultra filter (Millipore) and subjected to cation exchange column (Capto S, GE Healthcare) for further purification. The recombinant Kinesin-13 was then eluted in elution buffer (20 mM Tris-HCl pH 7.5 and 2 mM DTT) containing 400 mM of NaCl and stored at −80° C. for long-term storage.

MDA-MB-231 cells = test: Cell validation: cytotoxicity in MDA-MB-231 cells (CellTiter-Glo); assay type: cell-based; conditions: cytotoxicity in MDA-MB-231 cells; for IC50: Homo sapiens
Experimental: as §1
The cancer cells were cultured in a 96-well plate at a confluence of 1000-2000 cells/well with indicated drugs for specific days. When the time was up, the culture medium in the plate was aspirated and replaced with a prepared CellTiter-Glo reagent/DMEM mixture (1:1 mix of CellTiter-Glo reagent and serum-supplemented DMEM). After incubation for 10 min, the luminescence (proportional to the number of living cells) was measured with an ELISA plate reader to determine the cell viability.

T1 sequence (Q99661 216-598): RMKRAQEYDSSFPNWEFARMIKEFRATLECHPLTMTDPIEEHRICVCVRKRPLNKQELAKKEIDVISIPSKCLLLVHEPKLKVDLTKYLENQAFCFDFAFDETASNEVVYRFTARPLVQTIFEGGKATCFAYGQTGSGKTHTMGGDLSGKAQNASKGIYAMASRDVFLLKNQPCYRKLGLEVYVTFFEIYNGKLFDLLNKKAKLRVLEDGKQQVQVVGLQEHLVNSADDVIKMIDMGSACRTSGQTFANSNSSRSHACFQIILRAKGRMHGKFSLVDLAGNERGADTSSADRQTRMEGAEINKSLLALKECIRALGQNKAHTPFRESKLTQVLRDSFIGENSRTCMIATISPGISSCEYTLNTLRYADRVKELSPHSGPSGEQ

COc1ccc(/C=c2\sc3n(c2=O)C(c2ccc(Cl)cc2)C(C(=O)OC(C)C)=C(C)N=3)cc1 (stereo not drawn) [3S0 (23), isopropyl (Z)-5-(4-chlorophenyl)-2-(4-methoxybenzylidene)-7-methyl-3-oxo-2,3-dihydro-5H-thiazolo[3,2-a]pyrimidine-6-carboxylate]
EC50 (KIF2C): > 100 µM
IC50 (MDA-MB-231 cells): > 50 µM

CC1=C(C(=O)OC(C)C)C(c2ccc(Cl)cc2)n2c(s/c(=C\c3ccc(F)cc3)c2=O)=N1 (stereo not drawn) [2S0 (22), isopropyl (Z)-5-(4-chlorophenyl)-2-(4-fluorobenzylidene)-7-methyl-3-oxo-2,3-dihydro-5H-thiazolo[3,2-a]pyrimidine-6-carboxylate]
EC50 (KIF2C): > 100 µM
IC50 (MDA-MB-231 cells): > 50 µM

CC1=C(C(=O)OC(C)C)C(c2ccc(Cl)cc2)n2c(s/c(=C\c3ccc(OCC(=O)N4CCN(C(C)C)CC4)cc3)c2=O)=N1 (stereo not drawn) [11S0 (16), isopropyl (Z)-5-(4-chlorophenyl)-2-(4-(2-(4-isopropylpiperazin-1-yl)-2-oxoethoxy)benzylidene)-7-methyl-3-oxo-2,3-dihydro-5H-thiazolo[3,2-a]pyrimidine-6-carboxylate]
EC50 (KIF2C): > 100 µM
Cell validation (IC50) (MDA-MB-231 cells): + +

COc1ccc(C2C(C(=O)OC(C)C)=C(C)N=c3s/c(=C\c4ccc(OCC(=O)O)cc4)c(=O)n32)cc1 (stereo not drawn) [41S0 (60), (Z)-2-(4-((6-(isopropoxycarbonyl)-5-(4-methoxyphenyl)-7-methyl-3-oxo-5H-thiazolo[3,2-a]pyrimidin-2(3H)-ylidene)methyl)phenoxy)acetic acid]
EC50 (KIF2C): < 50 µM
IC50 (MDA-MB-231 cells): > 50 µM

CCOC(=O)C1=C(C)N=c2s/c(=C\c3ccc(OCC(=O)O)cc3)c(=O)n2[C@@H]1c1ccc(Cl)cc1 [54S0 (130)]
EC50 (KIF2C): 50 to 100 µM
IC50 (MDA-MB-231 cells): > 50 µM

CC1=C(C(=O)OC(C)C)C(c2ccc(N(C)C)cc2)n2c(s/c(=C\c3ccc(OCC(=O)O)cc3)c2=O)=N1 (stereo not drawn) [51S0 (55), (Z)-2-(4-((5-(4-(dimethylamino)phenyl)-6-(isopropoxycarbonyl)-7-methyl-3-oxo-5H-thiazolo[3,2-a]pyrimidin-2(3H)-ylidene)methyl)phenoxy)acetic acid]
EC50 (KIF2C): 50 to 100 µM
IC50 (MDA-MB-231 cells): > 50 µM

CC1=C(C(=O)OC(C)C)C(c2ccc(-n3ccnc3)cc2)n2c(s/c(=C\c3ccc(OCC(=O)N4CCN(C)CC4)cc3)c2=O)=N1 (stereo not drawn) [21S0 (46), isopropyl (Z)-5-(4-(1H-imidazol-1-yl)phenyl)-7-methyl-2-(4-(2-(4-methylpiperazin-1-yl)-2-oxoethoxy)benzylidene)-3-oxo-2,3-dihydro-5H-thiazolo[3,2-a]pyrimidine-6-carboxylate]
EC50 (KIF2C): 50 to 100 µM
Cell validation (IC50) (MDA-MB-231 cells): + +

CCOC(=O)COc1ccc(/C=c2\sc3n(c2=O)C(c2ccc(Cl)cc2)C(C(=O)OC(C)C)=C(C)N=3)cc1 (stereo not drawn) [4S0 (26), 1-methylethyl 5-(4-chlorophenyl)-2-[[4-(2-ethoxy-2-oxoethoxy)phenyl]methylene]-2,3-dihydro-7-methyl-3-oxo-5H-thiazolo[3,2-a]pyrimidine-6-carboxylate]
EC50 (KIF2C): > 100 µM
IC50 (MDA-MB-231 cells): > 50 µM

CCOC(=O)C1=C(C)N=c2s/c(=C\c3ccc(OCC(=O)OC)cc3)c(=O)n2[C@@H]1c1ccc(Cl)cc1 [44S0 (128)]
EC50 (KIF2C): > 100 µM
IC50 (MDA-MB-231 cells): > 50 µM

CC1=C(C(=O)OC(C)C)C(c2ccc(Cl)cc2)n2c(s/c(=C\c3ccc(OCC(=O)N4CCC(N(C)C)CC4)cc3)c2=O)=N1 (stereo not drawn) [Compound 139]
EC50 (KIF2C): 50 to 100 µM
IC50 (MDA-MB-231 cells): 20 to 50 µM

CC1=C(C(=O)OC(C)(C)C)C(c2ccc(N(C)C)cc2)n2c(s/c(=C\c3ccc(OCC(=O)N4CCN(C)CC4)cc3)c2=O)=N1 (stereo not drawn) [Compound 144]
EC50 (KIF2C): 50 to 100 µM
IC50 (MDA-MB-231 cells): 20 to 50 µM

CC1=C(C(=O)OC(C)C)C(c2ccc(Cl)cc2)n2c(s/c(=C\c3ccc(OCC(=O)NS(=O)(=O)C(F)(F)F)cc3)c2=O)=N1 (stereo not drawn) [56S0 (121), isopropyl (Z)-5-(4-chlorophenyl)-7-methyl-3-oxo-2-(4-(2-oxo-2-((trifluoromethyl)sulfonamido)ethoxy)benzylidene)-2,3-dihydro-5H-thiazolo[3,2-a]pyrimidine-6-carboxylate]
EC50 (KIF2C): > 100 µM
IC50 (MDA-MB-231 cells): > 50 µM

CC1=C(C(=O)OC(C)C)C(c2ccc(N(C)C)cc2)n2c(s/c(=C\c3ccc(OCC(=O)N4CCN(C)CC4)cc3)c2=O)=N1 (stereo not drawn) [19S0 (56), isopropyl (Z)-5-(4-(dimethylamino)phenyl)-7-methyl-2-(4-(2-(4-methylpiperazin-1-yl)-2-oxoethoxy)benzylidene)-3-oxo-2,3-dihydro-5H-thiazolo[3,2-a]pyrimidine-6-carboxylate]
EC50 (KIF2C): < 50 µM
Cell validation (IC50) (MDA-MB-231 cells): + +

CNc1ccc(C2C(C(=O)OC(C)C)=C(C)N=c3s/c(=C\c4ccc(OCC(=O)N5CCN(C)CC5)cc4)c(=O)n32)cc1 (stereo not drawn) [Compound 140]
EC50 (KIF2C): 50 to 100 µM
IC50 (MDA-MB-231 cells): 20 to 50 µM

CC1=C(C(=O)OC(C)(C)C)C(c2ccc(N(C)C)cc2)n2c(s/c(=C\c3ccc(OCC(=O)N4CCC(N5CCN(C)CC5)CC4)cc3)c2=O)=N1 (stereo not drawn) [Compound 152]
EC50 (KIF2C): 50 to 100 µM
IC50 (MDA-MB-231 cells): 20 to 50 µM

CC1=C(C(=O)OC(C)C)C(c2ccc(F)cc2)n2c(s/c(=C\c3ccc(OCC(=O)N4CCN(C)CC4)cc3)c2=O)=N1 (stereo not drawn) [32S0 (36), isopropyl (Z)-5-(4-fluorophenyl)-7-methyl-2-(4-(2-(4-methylpiperazin-1-yl)-2-oxoethoxy)benzylidene)-3-oxo-2,3-dihydro-5H-thiazolo[3,2-a]pyrimidine-6-carboxylate]
EC50 (KIF2C): > 100 µM
Cell validation (IC50) (MDA-MB-231 cells): + +

CCOC(=O)C1=C(C)N=c2s/c(=C\c3ccc(OCC(=O)N4CCC(N5CCN(C)CC5)CC4)cc3)c(=O)n2C1c1ccc(Cl)cc1 (stereo not drawn) [50S0 (99)]
EC50 (KIF2C): < 50 µM
Cell validation (IC50) (MDA-MB-231 cells): + + + +

CC1=C(C(=O)OC(C)C)C(c2ccc(Br)cc2)n2c(s/c(=C\c3ccc(OCC(=O)N4CCN(C)CC4)cc3)c2=O)=N1 (stereo not drawn) [20S0 (41), isopropyl (Z)-5-(4-bromophenyl)-7-methyl-2-(4-(2-(4-methylpiperazin-1-yl)-2-oxoethoxy)benzylidene)-3-oxo-2,3-dihydro-5H-thiazolo[3,2-a]pyrimidine-6-carboxylate]
EC50 (KIF2C): 50 to 100 µM
Cell validation (IC50) (MDA-MB-231 cells): + + +

COc1ccc(C2C(C(=O)OC(C)C)=C(C)N=c3s/c(=C\c4ccc(OCC(=O)N5CCN(C)CC5)cc4)c(=O)n32)cc1 (stereo not drawn) [42S0 (61), isopropyl (Z)-5-(4-methoxyphenyl)-7-methyl-2-(4-(2-(4-methylpiperazin-1-yl)-2-oxoethoxy)benzylidene)-3-oxo-2,3-dihydro-5H-thiazolo[3,2-a]pyrimidine-6-carboxylate]
EC50 (KIF2C): > 100 µM
IC50 (MDA-MB-231 cells): 20 to 50 µM

C#CCOc1ccc(/C=c2\sc3n(c2=O)C(c2ccc(Cl)cc2)C(C(=O)OC(C)C)=C(C)N=3)cc1 (stereo not drawn) [36S0 (116), isopropyl (Z)-5-(4-chlorophenyl)-7-methyl-3-oxo-2-(4-(prop-2-yn-1-yloxy)benzylidene)-2,3-dihydro-5H-thiazolo[3,2-a]pyrimidine-6-carboxylate]
EC50 (KIF2C): > 100 µM
IC50 (MDA-MB-231 cells): > 50 µM

CCN1CCN(C(=O)COc2ccc(/C=c3\sc4n(c3=O)C(c3ccc(N(C)C)cc3)C(C(=O)OC(C)(C)C)=C(C)N=4)cc2)CC1 (stereo not drawn) [Compound 148]
EC50 (KIF2C): < 50 µM
Cell validation (IC50) (MDA-MB-231 cells): + +
